Measured values taken from ChEMBL document CHEMBL4354807, “Natural Product Albiziabioside A Conjugated with Pyruvate Dehydrogenase Kinase Inhibitor Dichloroacetate To Induce Apoptosis-Ferroptosis-M2-TAMs Polarization for Combined Cancer Therapy” (J Med Chem, 2019).
Calls of active or inactive are those of the source. The calls are words filed in the database; no cut-off is given here.

Assays:
4T1 [1] = assay: Anticancer activity against mouse 4T1 cells expressing PDK assessed as reduction in cell viability after 72 hrs by MTT assay; type: functional, cell-based; conditions: 4T1, 72 h
4T1 [2] = assay: Inhibition of glycolysis in mouse 4T1 cells expressing PDK assessed as reduction in intracellular lactate level at 30 uM after 6 hrs by microplate reader assay; type: functional, cell-based
4T1 [3] = assay: Inhibition of glycolysis in mouse 4T1 cells expressing PDK assessed as reduction in extracellular lactate level at 30 uM after 6 hrs by microplate reader assay; type: functional, cell-based
HCT-116 = assay: Anticancer activity against human HCT116 cells expressing PDK assessed as reduction in cell viability after 72 hrs by MTT assay; type: functional, cell-based; conditions: HCT-116, 72 h
MCF7 [4] = assay: Induction of mitochondrial dysfunction in human MCF7 cells assessed as cell population with intact mitochondrial membrane potential at 30 uM after 24 hrs by JC1 staining-based FACScalibur flow cytometry analysis (reference value: 97%); type: functional
MCF7 [5] = assay: Inhibition of glycolysis in human MCF7 cells assessed as reduction in intracellular lactate level at 30 uM after 6 hrs by microplate reader assay; type: functional, cell-based
MCF7 [6] = assay: (§1) Induction of metabolic reversal from aerobic glycolysis to oxidative phosphorylation in human MCF7 cells assessed as decrease in oxygen consumption rate at 30 uM pretreated for 6 hrs followed by oligomycin A addition after 25 mins followed by subsequent addition of FCCP after 50 mins followed by antimycin/rotenone addition after 80 mins by seahorse XF24 extracellular flux analyzer assay; type: functional, cell-based
MCF7 [7] = assay: Induction of apoptosis in human MCF7 cells assessed as early apoptotic cells at 30 uM after 24 hrs by Annexin V-FITC/propidium iodide staining-based flow cytometric analysis (reference value: 3.53 %); type: functional
MCF7 [8] = assay: Induction of ROS generation in human MCF7 cells assessed as ROS level at 30 uM after 24 hrs by DCFDA-fluorescence based flow cytometry (reference value: 6.57 %); type: functional
MCF7 [9] = assay: Induction of apoptosis in human MCF7 cells assessed as viable cells at 30 uM after 24 hrs by Annexin V-FITC/propidium iodide staining-based flow cytometric analysis (reference value: 93.39 %); type: functional; conditions: MCF7, 24 h, read-out: Activity
MCF7 [10] = assay: Induction of apoptosis in human MCF7 cells assessed as late apoptotic cells at 30 uM after 24 hrs by Annexin V-FITC/propidium iodide staining-based flow cytometric analysis (reference value: 2.97 %); type: functional
[11] = Toxicity in BALB/c nude mouse xenografted with human MCF7 cells assessed as effect on body weight at 30 mg/kg, iv administered every 2 days for 2 weeks measured after 14 days; type: organism-based; conditions: in vivo, 336 h
MCF7 [12] = assay: as §1, with “decline” for “decrease”, “extracellular acidification” for “oxygen consumption”, “4” for “6”, “glucose” for “oligomycin A”, “oligomycin A” for “FCCP”, “2-DG” for “antimycin/rotenone”; type: functional, cell-based
MCF7 [13] = assay: (§2) Induction of metabolic reversal from aerobic glycolysis to oxidative phosphorylation in human MCF7 cells assessed as […] at 30 uM pretreated for 4 hrs followed by glucose addition after 25 mins by seahorse XF24 extracellular flux analyzer assay; type: functional, cell-based
[14] = Cytotoxicity against human HBMEC cells assessed as reduction in cell viability after 72 hrs by MTT assay; type: cell-based
MCF7 [15] = assay: Anticancer activity against human MCF7 cells overexpressing PDK assessed as reduction in cell viability after 72 hrs by MTT assay; type: functional, cell-based; conditions: MCF7, 72 h
L02 = assay: Cytotoxicity against human LO2 cells assessed as reduction in cell viability after 72 hrs by MTT assay; type: cell-based; conditions: L02, 72 h
MCF7 [16] = assay: Inhibition of glycolysis in human MCF7 cells assessed as reduction in extracellular lactate level at 30 uM after 6 hrs by microplate reader assay; type: functional, cell-based
MCF7 [17] = assay: Antitumor activity against human MCF7 cells xenografted in BALB/c nude mouse assessed as tumor growth inhibition at 30 mg/kg, iv administered every two days for two weeks measured after 14 days; type: functional, organism-based
[18] = biological target: [Pyruvate dehydrogenase (acetyl-transferring)] kinase isozyme 1, mitochondrial (Homo sapiens) (UniProt Q15118); assay: Inhibition of PDK1 (unknown origin) expressed in human MCF7 cells using PDK tide as substrate measured after 90 mins in presence of ATP by ADP-Glo luminescent kinase assay
MCF7 [19] = assay: Downregulation of PDK expression in human MCF7 cells at 2.5 to 10 uM after 48 hrs by Western blot analysis; type: functional, cell-based
[20] = Toxicity in BALB/c nude mouse xenografted with human MCF7 cells assessed as mouse death at 30 mg/kg, iv administered every 2 days for 2 weeks measured after 14 days; type: organism-based; conditions: in vivo, 336 h
A-375 [21] = assay: Anticancer activity against human A375 cells expressing PDK assessed as reduction in cell viability after 72 hrs by MTT assay; type: functional, cell-based; conditions: A-375, 72 h
MCF7 [22] = assay: as §2, with “mins followed by subsequent addition of oligomycin A after 50 mins” for “mins”; type: functional, cell-based
MCF7 [23] = assay: Induction of mitochondrial dysfunction in human MCF7 cells assessed as cell population with mitochondrial membrane potential collapse at 30 uM after 24 hrs by JC1 staining-based FACScalibur flow cytometry analysis (reference value: 2.74 %); type: functional
MCF7 [24] = assay: Induction of apoptosis in human MCF7 cells assessed as necrotic cells at 30 uM after 24 hrs by Annexin V-FITC/propidium iodide staining-based flow cytometric analysis (reference value: 0.10 %); type: functional
MCF7 [25] = assay: Cytotoxicity against human MCF7 cells assessed as cell death at 30 uM pretreated with Z-VAD-fmk followed by compound addition by MTT assay; type: functional, cell-based
[26] = Toxicity in BALB/c nude mouse xenografted with human MCF7 cells assessed as effect on body weight at 10 mg/kg, iv administered every 2 days for 2 weeks measured after 14 days; type: organism-based; conditions: in vivo, 336 h
4T1 [27] = assay: Inhibition of glycolysis in mouse 4T1 cells expressing PDK assessed as reduction in intracellular lactate level at 10 uM after 6 hrs by microplate reader assay; type: functional, cell-based
[28] = Toxicity in BALB/c nude mouse xenografted with human MCF7 cells assessed as mouse death at 10 mg/kg, iv administered every 2 days for 2 weeks measured after 14 days; type: organism-based; conditions: in vivo, 336 h
MCF7 [29] = assay: as §1, with “10” for “30”; type: functional, cell-based
MCF7 [30] = assay: Inhibition of glycolysis in human MCF7 cells assessed as reduction in intracellular lactate level at 10 uM after 6 hrs by microplate reader assay; type: functional, cell-based
MCF7 [31] = assay: Induction of apoptosis in human MCF7 cells assessed as viable cells at 10 uM after 24 hrs by Annexin V-FITC/propidium iodide staining-based flow cytometric analysis (reference value: 93.39 %); type: functional; conditions: MCF7, 24 h, read-out: Activity
MCF7 [32] = assay: Induction of mitochondrial dysfunction in human MCF7 cells assessed as cell population with intact mitochondrial membrane potential at 10 uM after 24 hrs by JC1 staining-based FACScalibur flow cytometry analysis (reference value: 97%); type: functional
MCF7 [33] = assay: Induction of mitochondrial dysfunction in human MCF7 cells assessed as cell population with mitochondrial membrane potential collapse at 10 uM after 24 hrs by JC1 staining-based FACScalibur flow cytometry analysis (reference value: 2.74 %); type: functional
MCF7 [34] = assay: Cytotoxicity against human MCF7 cells assessed as cell death at 10 uM pretreated with Z-VAD-fmk followed by compound addition by MTT assay; type: functional, cell-based
MCF7 [35] = assay: Inhibition of glycolysis in human MCF7 cells assessed as reduction in extracellular lactate level at 10 uM after 6 hrs by microplate reader assay; type: functional, cell-based
MCF7 [36] = assay: Induction of apoptosis in human MCF7 cells assessed as early apoptotic cells at 10 uM after 24 hrs by Annexin V-FITC/propidium iodide staining-based flow cytometric analysis (reference value: 3.53 %); type: functional
MCF7 [37] = assay: Antitumor activity against human MCF7 cells xenografted in BALB/c nude mouse assessed as tumor growth inhibition at 10 mg/kg, iv administered every two days for two weeks measured after 14 days; type: functional, organism-based
MCF7 [38] = assay: Induction of apoptosis in human MCF7 cells assessed as necrotic cells at 10 uM after 24 hrs by Annexin V-FITC/propidium iodide staining-based flow cytometric analysis (reference value: 0.10 %); type: functional
4T1 [39] = assay: Inhibition of glycolysis in mouse 4T1 cells expressing PDK assessed as reduction in extracellular lactate level at 10 uM after 6 hrs by microplate reader assay; type: functional, cell-based
A-375 [40] = assay: Cytotoxicity against human A375 cells assessed as reduction in cell viability after 72 hrs by MTT assay; type: functional, cell-based; conditions: A-375, 72 h
MCF7 [41] = assay: (§3) Induction of metabolic reversal from aerobic glycolysis to oxidative phosphorylation in human MCF7 cells assessed as increase in extracellular acidification rate at 10 uM pretreated for 4 hrs followed by glucose addition after 25 mins by seahorse XF24 extracellular flux analyzer assay; type: functional, cell-based
MCF7 [42] = assay: Induction of ROS generation in human MCF7 cells assessed as ROS level at 10 uM after 24 hrs by DCFDA-fluorescence based flow cytometry (reference value: 6.57 %); type: functional
MCF7 [43] = assay: Induction of apoptosis in human MCF7 cells assessed as late apoptotic cells at 10 uM after 24 hrs by Annexin V-FITC/propidium iodide staining-based flow cytometric analysis (reference value: 2.97 %); type: functional
MCF7 [44] = assay: as §3, with “mins followed by subsequent addition of oligomycin A after 50 mins” for “mins”; type: functional, cell-based
MCF7 [45] = assay: as §3, with “decrease” for “increase”, “mins followed by subsequent addition of oligomycin A after 50 mins followed by 2-DG addition after 80 mins” for “mins”; type: functional, cell-based

O=C([O-])C(Cl)Cl.[Na+] [SODIUM DICHLOROACETATE]
IC50 (4T1 [1]): > 100 µM | inhibition (4T1 [2]): inactive | inhibition (4T1 [3]): inactive | IC50 (HCT-116): > 100 µM | Activity (MCF7 [4]): 84.95% | inhibition (MCF7 [5]): inactive | Activity (MCF7 [6]): Active | Activity (MCF7 [7]): 12.57% | Activity (MCF7 [8]): 15.13% | viability at 30 µM (MCF7 [9]): 79.9% | Activity (MCF7 [10]): 5.86% | Activity [11]: Non-Toxic | Activity (MCF7 [12]): Active | Activity (MCF7 [13]): Active | IC50 [14]: > 100 µM | IC50 (MCF7 [15]): > 100 µM | IC50 (L02): > 100 µM | inhibition (MCF7 [16]): inactive | Activity (MCF7 [17]): Active | inhibition [18]: Active | Activity (MCF7 [19]): inactive | Activity [20]: Non-Toxic | IC50 (A-375 [21]): > 100 µM | Activity (MCF7 [22]): Active | Activity (MCF7 [23]): 14.63% | Activity (MCF7 [24]): 1.67% | Activity (MCF7 [25]): inactive

CC1(C)CC[C@]2(C(=O)O)CC[C@]3(C)C(=CC[C@@H]4[C@@]5(C)CC[C@H](O[C@@H]6O[C@H](CO[C@@H]7OC[C@H](O)[C@H](O)[C@H]7O)[C@@H](O)[C@H](O)[C@H]6NC(=O)CCl)C(C)(C)[C@@H]5CC[C@]43C)[C@@H]2C1
inhibition [18]: inactive

CC(=O)N[C@H]1[C@H](O[C@H]2CC[C@]3(C)[C@H]4CC=C5[C@@H]6CC(C)(C)CC[C@]6(C(=O)O)CC[C@@]5(C)[C@]4(C)CC[C@H]3C2(C)C)O[C@H](CO[C@@H]2OC[C@H](O)[C@H](O)[C@H]2O)[C@@H](O)[C@@H]1O
IC50 (4T1 [1]): 16.4 µM | Activity [26]: Non-Toxic | inhibition (4T1 [27]): inactive | Activity [28]: Non-Toxic | IC50 (HCT-116): 21.6 µM | Activity (MCF7 [29]): Active | IC50 [14]: 37.1 µM | inhibition (MCF7 [30]): inactive | IC50 (MCF7 [15]): 20.4 µM | viability at 10 µM (MCF7 [31]): 70.4% | Activity (MCF7 [32]): 72.69% | IC50 (L02): 33.2 µM | Activity (MCF7 [33]): 25.86% | inhibition [18]: inactive | Activity (MCF7 [34]): inactive | inhibition (MCF7 [35]): inactive | Activity (MCF7 [36]): 18.5% | Activity (MCF7 [37]): Active | IC50 (A-375 [21]): 5.73 µM | Activity (MCF7 [38]): 2.07% | inhibition (4T1 [39]): inactive | IC50 (A-375 [40]): 5.47 µM | Activity (MCF7 [41]): Active | Activity (MCF7 [42]): 26.43% | Activity (MCF7 [43]): 9.07% | Activity (MCF7 [44]): Active | Activity (MCF7 [45]): Active

O=c1[nH]cc(F)c(=O)[nH]1 [FLUOROURACIL]
IC50 (4T1 [1]): 28.1 µM | Activity [26]: Non-Toxic | Activity [28]: Non-Toxic | IC50 (HCT-116): 26.1 µM | IC50 [14]: 27.3 µM | IC50 (L02): 29.5 µM | Activity (MCF7 [37]): Active | IC50 (A-375 [21]): 21.1 µM
